Like-named read-outs stand apart in the source and are kept apart here.
How the values were obtained:
m1 muscarinic receptor [1] = target: T1, m1 muscarinic receptor (Homo sapiens, UniProt P11229); assay: biochemical; assay type: binding
T1 sequence (P11229 1-460): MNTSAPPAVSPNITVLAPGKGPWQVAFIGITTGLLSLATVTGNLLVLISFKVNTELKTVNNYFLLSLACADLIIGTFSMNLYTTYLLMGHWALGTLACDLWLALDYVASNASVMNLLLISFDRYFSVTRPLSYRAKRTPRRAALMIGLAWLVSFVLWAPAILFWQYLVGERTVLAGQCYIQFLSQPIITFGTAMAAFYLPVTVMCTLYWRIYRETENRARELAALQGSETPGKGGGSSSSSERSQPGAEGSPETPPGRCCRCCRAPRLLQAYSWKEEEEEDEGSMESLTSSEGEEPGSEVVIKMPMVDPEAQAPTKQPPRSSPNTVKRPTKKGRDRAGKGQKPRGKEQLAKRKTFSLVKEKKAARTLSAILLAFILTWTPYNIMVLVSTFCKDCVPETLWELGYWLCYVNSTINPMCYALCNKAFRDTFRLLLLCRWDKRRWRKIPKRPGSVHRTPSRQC

m2 muscarinic receptor [2] = target: T2, m2 muscarinic receptor (Homo sapiens, UniProt P08172); assay: biochemical; assay type: binding
T2 sequence (P08172 1-466): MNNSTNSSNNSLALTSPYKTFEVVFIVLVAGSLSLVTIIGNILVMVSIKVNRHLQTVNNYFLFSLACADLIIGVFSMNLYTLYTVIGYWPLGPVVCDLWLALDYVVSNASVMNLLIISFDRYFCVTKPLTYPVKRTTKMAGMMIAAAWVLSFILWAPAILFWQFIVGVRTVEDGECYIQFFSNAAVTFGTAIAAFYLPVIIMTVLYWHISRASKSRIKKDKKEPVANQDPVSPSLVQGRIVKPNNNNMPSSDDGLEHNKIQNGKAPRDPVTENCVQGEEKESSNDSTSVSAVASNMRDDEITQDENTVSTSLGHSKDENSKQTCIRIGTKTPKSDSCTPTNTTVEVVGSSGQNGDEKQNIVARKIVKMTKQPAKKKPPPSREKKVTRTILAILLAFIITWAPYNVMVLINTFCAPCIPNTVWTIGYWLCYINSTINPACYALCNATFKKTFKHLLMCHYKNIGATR

[3] = target: T3, M1 acetylcholine receptors (Homo sapiens, UniProt P11229); assay: stimulation of phosphoinositide (PI) hydrolysis in CHO cells expressing M1 acetylcholine receptors; assay type: cell-based; settings: for Emax: CHO, 1 h; for EC50: read-out: m1 agonism [P.I.] EC50; for m1 CHO @ 30 × Ki % Carbachol / m1 CHO % Carbachol (at Ki): PI hydrolysis, 60 min; for m1 CHO @ 30 × Ki % Carbachol: at 30 × Ki
T3 sequence (P11229 1-460): T1 sequence (P11229 1-460)
Experimental: (§1) The tubes are incubated for one hour at 37° C. The reaction is quenched with chloroform and the phosphatidyl inositols are extracted with methanol and chloroform. Phase separation is assured with the addition of methanol and water followed by centrifugation. The tritiated inositol phosphates are recovered on BioRad AG 1-X8 anion exchange resin in the formate cycle. After washing the resin with water and myo-inositol, the inositol phosphates are eluted with ammonium formate/formic acid, collected and subjected to liquid scintillation spectroscopy.
(§2) Cloned human receptors in CHO cells were used in these studies.

m1 muscarinic receptor [4] = target: m1 muscarinic receptor (Homo sapiens, UniProt P11229); assay: biochemical; assay type: binding; remark: listed apart in the source
[5] = target: M1 acetylcholine receptors (Homo sapiens, UniProt P11229); assay: stimulation of phosphoinositide (PI) hydrolysis in CHO cells expressing M1 acetylcholine receptors; assay type: cell-based
Experimental: as §1, §2

m2 muscarinic receptor [6] = target: T2, m2 muscarinic receptor; assay: m2 agonism (cAMP) / functional selectivity; assay type: cell-based; settings: for EC50: cAMP, m2; for Functional Selectivity-m2/m1: ratio of m2 (cAMP) EC50 to m1 (PI) EC50
Text: Such diseases include presenile and senile dementia (also known as Alzheimer's Disease and Senile Dementia of the Alzheimer Type, respectively), Huntington's Chorea, Tardive Dyskinesia, Hyperkinesia, Mania and Tourette's Syndrome. Alzheimer's Disease is a slowly progressive neurological disorder characterized by deficits in cognitive function including memory, attention, language and visual perception capabilities.
as §2

[7] = m1, cloned human receptors in CHO cells, read-out: [3H]QNB Binding Ki(μM) m1
[8] = read-out: [3H]QNB Binding Ki(μM) m2
[9] = read-out: m1 CHO @ 30 × Ki % Carbachol, PI hydrolysis, m1 CHO, at 30 × Ki, percentage of mean carbachol value
[10] = m2, cloned human receptors in CHO cells, read-out: [3H]QNB Binding Ki(μM) m2
[11] = read-out: m1 CHO % Carbachol (at Ki), PI hydrolysis, m1 CHO, at Ki, percentage of mean carbachol value
[12] = read-out: m1 CHO @ 30 × Ki % Carbachol
[13] = percentage of mean carbachol value
[14] = read-out: m1 CHO % Carbachol (at Ki)

With `CCCCCCOc1nccnc1O[C@H]1CN2CC[C@@H]1C2` (relative stereo) [Example 1, (±)-(endo)-3-(3-Hexyloxy-pyrazin-2-yloxy)-1-aza-bicyclo 2.2.1!heptane] the Ki (m1 muscarinic receptor [1]; [7]) was 0.03 µM, the Ki (m2 muscarinic receptor [2]; [8]) was 0.02 µM and the Emax [3, 9] was 102%.

`CCCCCCSc1nccnc1O[C@H]1CN2CC[C@@H]1C2` (relative stereo) [Example 2, (endo)-3-(3-Hexylsulfanyl-pyrazin-2-yloxy)-1-aza-bicyclo 2.2.1!heptane] showed a Ki (m1 muscarinic receptor [1]; [7]) of 0.0067 µM, a Ki (m2 muscarinic receptor [2]; [10]) of 0.013 µM and an Emax [3, 9] of 97.1%.

`CCCCCCSc1nccnc1O[C@@H]1CN2CC[C@@H]1C2` (relative stereo) [Example 6, (exo)-3-(3-Hexylsulfanyl-pyrazin-2-yloxy)-1-azabicyclo 2.2.1!heptane] gave a Ki (m1 muscarinic receptor [1]; [7]) of 0.123 µM, a Ki (m2 muscarinic receptor [2]; [10]) of 0.088 µM and an Emax [3, 11] of 104%.

`CCCCCCOc1nccnc1S[C@@H]1CN2CC[C@@H]1C2` (relative stereo) [Example 11, (exo)-3-(3-Hexyloxy-pyrazin-2-ylsulfanyl)-1-azabicyclo 2.2.1!heptane] was tested, and the Ki (m1 muscarinic receptor [1]; [7]) was 0.292 µM and the Emax [3, 11] was 41.6%.

`CCCCCCSc1nccnc1S[C@@H]1CN2CC[C@@H]1C2` (relative stereo) [Example 12, (exo)-3-(3-Hexylsulfanyl-pyrazin-2-ylsulfanyl)-1-azabicyclo-2.2.1!heptane] showed a Ki (m1 muscarinic receptor [1]; read-out: [3H]QNB Binding Ki(μM) m1) of 0.03 µM, a Ki (m2 muscarinic receptor [2]; [8]) of 0.064 µM and an Emax [3, 12] of 62%.

For `CCCCCCOc1nccnc1O[C@H]1CN2CC[C@@H]1C2` (single isomer, unassigned), the Ki (m1 muscarinic receptor [4]) was 32 nM and the EC50 [5] was 5.5 nM.

In the case of `CCCCCCSc1nccnc1O[C@H]1CN2CC[C@@H]1C2` (single isomer, unassigned) [2(+), (+)-(endo)-3-(3-hexylsulfanyl-pyrazin-2-yloxy)-1-aza-bicyclo 2.2.1!heptane], the Ki (m1 muscarinic receptor [1]; [7]) is reported as 0.027 µM, the Ki (m2 muscarinic receptor [2]; [10]) is reported as 0.063 µM and the Emax [3, 9] is reported as 31.1%.

In the case of `CCCCCCSc1nccnc1O[C@H]1CN2CC[C@@H]1C2` (single isomer, unassigned) [Example 2(-), (-)-(endo)-3-(3-hexylsulfanyl-pyrazin-2-yloxy)-1-aza-bicyclo 2.2.1!heptane], the Ki (m2 muscarinic receptor [2]; [10]) is reported as 0.0045 µM, the Emax [3, 11] is reported as 46.5% and the EC50 [3] is reported as 0.4 nM. The EC50 (m2 muscarinic receptor [6]) was 16 nM and the “Functional Selectivity-m2/m1” value (m2 muscarinic receptor [6]) was 40.

Compound `CCCCCCOc1nccnc1O[C@H]1CN2CC[C@@H]1C2` (single isomer, unassigned) [Example 4] has a Ki (m2 muscarinic receptor [2]; [8]) of 0.024 µM.

`CCCCCCOc1nccnc1O[C@H]1CN2CC[C@@H]1C2` (single isomer, unassigned) [Example 5, (+)-endo-3-(3-Hexyloxy-pyrazin-2-yloxy)-1-azabicyclo 2.2.1!heptane] was tested, and the Ki (m1 muscarinic receptor [1]; [7]) was 0.083 µM, the Ki (m2 muscarinic receptor [2]; [8]) was 0.071 µM and the “m1 CHO @ 30 × Ki % Carbachol” value [3, 13] was 51%.

In the case of `CCCCCCSc1nccnc1O[C@@H]1CN2CC[C@@H]1C2` (single isomer, unassigned) [Example 7, (+)-exo-3-(3-Hexylsulfanyl-pyrazin-2-yloxy)-1-azabicyclo 2.2.1!heptane], the Ki (m2 muscarinic receptor [2]; [10]) is reported as 0.059 µM, the “m1 CHO % Carbachol (at Ki)” value [3, 13] is reported as 107.3% and the EC50 [3] is reported as 10.3 nM. The EC50 (m2 muscarinic receptor [6]) was 2400 nM and the “Functional Selectivity-m2/m1” value (m2 muscarinic receptor [6]) was 240.

In the case of `CCCCCCSc1nccnc1O[C@@H]1CN2CC[C@@H]1C2` (single isomer, unassigned) [Example 8, (-)-(exo)-3-(3-Hexylsulfanyl-pyrazin-2-yloxy)-1-azabicyclo 2.2.1!heptane], the Ki (m2 muscarinic receptor [2]; [10]) is reported as 0.008 µM and the “m1 CHO % Carbachol (at Ki)” value [3, 13] is reported as 44.2%.

For `CCCCCCOc1nccnc1O[C@@H]1CN2CC[C@@H]1C2` (single isomer, unassigned) [Example 9, (-)-(exo)-3-(3-Hexyloxy-pyrazin-2-yloxy)-1-azabicyclo 2.2.1!heptane], the Ki (m2 muscarinic receptor [2]; [8]) was 0.774 µM and the “m1 CHO @ 30 × Ki % Carbachol” value [3, 13] was 56%.

In the case of `CCCCCCOc1nccnc1O[C@@H]1CN2CC[C@@H]1C2` (single isomer, unassigned) [Example 10, (+)-(exo)-3-(3-Hexyloxy-pyrazin-2-yloxy)-1-azabicyclo 2.2.1!heptane], the Ki (m2 muscarinic receptor [2]; [8]) is reported as 0.149 µM and the “m1 CHO @ 30 × Ki % Carbachol” value [3, 13] is reported as 9%.

`CCCCCCSc1nccnc1SC1CN2CCC1CC2` (stereo not shown) [Example 13, 3-(3-Hexylsulfanyl-pyrazin-2-ylsulfanyl)-1-azabicyclo 2.2.2!octane] gave a Ki (m1 muscarinic receptor [1]) of 0.029 µM and an Emax [3, 12] of 45.9%.

Compound `CCCCCCOc1nccnc1SC1CN2CCC1CC2` (stereo not shown) [Example 14, 3-(3-Hexyloxy-pyrazin-2-ylsulfanyl)-1-azabicyclo 2.2.2!octane] has a Ki (m1 muscarinic receptor [1]) of 0.076 µM and an Emax [3, 14] of 29.5%.

`CCCCCCOc1nccnc1OC1CN2CCC1CC2` (stereo not shown) [Example 15] was tested, and the Ki (m1 muscarinic receptor [1]) was 0.14 µM, the Ki (m2 muscarinic receptor [2]; [3H]QNB Binding Ki(μM) m2, m2, cloned human receptors in CHO cells) was 0.124 µM and the Emax [3, 14] was 59.6%.
